In ChEMBL document CHEMBL1140402, “SAR, species specificity, and cellular activity of cyclopentene dicarboxylic acid amides as DHODH inhibitors” (Bioorg Med Chem Lett, 2005):

Tests used:
[1] = Inhibitory activity (proliferation) against human peripheral blood mononuclear cells stimulated with Phytohemagglutininin-L (value range: 0.175-0.327); format: functional
[2] = molecular target: Dihydroorotate dehydrogenase (quinone), mitochondrial (Mus musculus, UniProt O35435); test: Inhibitory activity against mouse dihydroorotate dehydrogenase
Dihydroorotate dehydrogenase (quinone), mitochondrial (Mus musculus, UniProt O35435), sequence (O35435 whole entry): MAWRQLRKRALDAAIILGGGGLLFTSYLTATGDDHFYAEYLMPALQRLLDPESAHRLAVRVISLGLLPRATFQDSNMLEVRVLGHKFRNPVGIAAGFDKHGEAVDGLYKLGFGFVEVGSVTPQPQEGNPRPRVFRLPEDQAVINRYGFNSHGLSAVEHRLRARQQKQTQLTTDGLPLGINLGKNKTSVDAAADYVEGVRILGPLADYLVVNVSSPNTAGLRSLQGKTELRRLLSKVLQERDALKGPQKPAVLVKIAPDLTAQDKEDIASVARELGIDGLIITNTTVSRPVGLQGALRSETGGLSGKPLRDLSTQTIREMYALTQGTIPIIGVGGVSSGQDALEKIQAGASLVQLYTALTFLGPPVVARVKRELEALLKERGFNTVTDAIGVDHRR

[3] = molecular target: Dihydroorotate dehydrogenase (quinone), mitochondrial (Rattus norvegicus, UniProt Q63707); test: Inhibitory activity against rat dihydroorotate dehydrogenase
Dihydroorotate dehydrogenase (quinone), mitochondrial (Rattus norvegicus, UniProt Q63707), sequence (Q63707 whole entry): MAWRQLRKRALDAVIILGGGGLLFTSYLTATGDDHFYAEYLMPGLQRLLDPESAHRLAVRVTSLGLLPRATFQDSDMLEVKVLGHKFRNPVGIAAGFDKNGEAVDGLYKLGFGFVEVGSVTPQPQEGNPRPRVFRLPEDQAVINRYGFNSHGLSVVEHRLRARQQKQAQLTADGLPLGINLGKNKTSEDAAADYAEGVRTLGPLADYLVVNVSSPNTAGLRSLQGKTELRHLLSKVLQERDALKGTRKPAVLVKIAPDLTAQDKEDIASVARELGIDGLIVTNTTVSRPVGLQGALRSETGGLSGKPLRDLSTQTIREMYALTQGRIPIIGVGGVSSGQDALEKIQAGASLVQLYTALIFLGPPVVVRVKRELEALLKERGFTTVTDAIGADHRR

[4] = Inhibitory activity (proliferation) against human peripheral blood mononuclear cells stimulated with Phytohemagglutininin-L; format: functional
[5] = molecular target: Dihydroorotate dehydrogenase (quinone), mitochondrial (Homo sapiens, UniProt Q02127); test: Inhibition of N-terminally truncated recombinant human dihydroorotate dehydrogenase using in vitro enzyme assay
Dihydroorotate dehydrogenase (quinone), mitochondrial (Homo sapiens, UniProt Q02127), sequence (Q02127 whole entry, the tested form may be a part): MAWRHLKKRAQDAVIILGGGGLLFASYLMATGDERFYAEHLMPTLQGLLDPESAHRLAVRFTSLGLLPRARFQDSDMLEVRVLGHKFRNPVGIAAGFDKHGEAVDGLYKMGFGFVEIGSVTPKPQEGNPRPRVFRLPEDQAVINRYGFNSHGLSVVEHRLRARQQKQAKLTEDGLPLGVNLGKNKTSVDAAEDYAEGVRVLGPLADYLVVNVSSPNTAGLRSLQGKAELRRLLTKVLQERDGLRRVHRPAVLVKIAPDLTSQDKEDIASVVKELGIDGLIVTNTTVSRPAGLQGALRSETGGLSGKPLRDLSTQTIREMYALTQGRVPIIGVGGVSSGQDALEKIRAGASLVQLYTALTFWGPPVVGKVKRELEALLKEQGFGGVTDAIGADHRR

| IC50 [5] | Compound | other results |
| --- | --- | --- |
| – | O=C(O)C1=C(C(=O)Nc2c(F)c(F)c(-c3cccc(OC(F)(F)F)c3)c(F)c2F)CCC1 | IC50 [1]: 0.327 µM; IC50 [2]: 0.422 µM; IC50 [3]: 0.078 µM |
| – | O=C(O)C1=C(C(=O)Nc2c(F)cc(-c3cccc(OC(F)(F)F)c3)cc2F)CCC1 | IC50 [4]: 15 µM; IC50 [2]: 2 µM; IC50 [3]: 0.504 µM |
| 0.011 µM | O=C(O)C1=C(C(=O)Nc2ccc(OCc3c(F)cccc3Cl)c(Cl)c2)CCC1 | – |
| 0.68 µM | COc1cccc(-c2ccc(NC(=O)C3=C(C(=O)O)C(O)CC3)c(F)c2)c1 (configuration not stated) | – |
| 0.004 µM | O=C(O)C1=C(C(=O)Nc2c(F)c(F)c(-c3cccc(OC(F)(F)F)c3)c(F)c2F)CSC1 | – |
| 0.205 µM | O=C(O)C1=C(C(=O)Nc2c(F)cc(-c3cccc(OC(F)(F)F)c3)cc2F)COC1 | – |
| 0.173 µM | O=C(O)C1=C(C(=O)Nc2cc(Br)c(OCc3ccccc3)c(Br)c2)CSC1 | – |
| 3.8 µM | O=C(O)C1=C(C(=O)Nc2ccc(-c3ccccc3)cc2)CS(=O)(=O)C1 | – |
| 1.46 µM | COc1cccc(-c2ccc(NC(=O)C3=C(C(=O)O)CCC3O)c(F)c2)c1 (configuration not stated) | – |
| 0.36 µM | COc1cccc(-c2ccc(NC(=O)C3=C(C(=O)O)COC3)c(F)c2)c1 | – |
| – | O=C(O)C1=C(C(=O)Nc2ccc(-c3ccccc3)cc2)CCC1 | IC50 [3]: 1.5 µM |
| 2 µM | O=C(O)C1=C(C(=O)Nc2ccc(OCc3ccccc3)cc2)CCC1 | – |
| 0.667 µM | O=C(O)C1=C(C(=O)Nc2ccc(-c3ccccc3)cc2)CSC1 | – |
| – | C/C(O)=C(\C#N)C(=O)Nc1ccc(C(F)(F)F)cc1 [TERIFLUNOMIDE] | IC50 [4]: 108 µM |
| – | COc1cccc(-c2ccc(NC(=O)C3=C(C(=O)O)CCC3)c(F)c2)c1 [VIDOFLUDIMUS] | IC50 [4]: 13 µM |

| Compound | IC50 [5] | other results |
| --- | --- | --- |
| O=C(O)C1=C(C(=O)Nc2ccc(OCc3c(F)cccc3Cl)c(Cl)c2)COC1 | 0.041 µM | IC50 [4]: 1 µM; IC50 [2]: 1.8 µM; IC50 [3]: 1.2 µM |
| COc1cccc(-c2ccc(NC(=O)C3=C(C(=O)O)CSC3)c(F)c2)c1 | 0.131 µM | – |
| O=C(O)C1=C(C(=O)Nc2c(F)cc(-c3cccc(OC(F)(F)F)c3)cc2F)CSC1 | 0.015 µM | – |
| O=C(O)C1=C(C(=O)Nc2c(F)c(F)c(-c3cccc(OC(F)(F)F)c3)c(F)c2F)COC1 | 0.058 µM | – |
| O=C(O)C1=C(C(=O)Nc2cc(Br)c(OCc3ccccc3)c(Br)c2)CCC1 | 0.127 µM | – |
